Some test systems named below: HT29 colon; CCRF-CEM leukemia; NCI-H460 lung; OVCAR-3 ovarian; U251 CNS; SNB-19 CNS; KM12 colon; NCI-H23 lung; NCI-H522 lung; M14 melanoma; HCC-2998 colon; IGROV1 ovarian; HCT-15 colon; LOX IMVI melanoma; COLO 205 colon; MOLT-4 leukemia; SK-MEL-28 melanoma; T-47D breast; A498 renal; DU-145 prostate.
Common to all, as to test: inhibition of tumour cell growth, NCI panel, 48 h

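Where inhibition never reached the appropriate level, the endpoint shown equals the highest concentration tested. Otherwise, values were interpolated linearly from a five-concentration, 48-hour dose response in 96-well plates. TGI: concentration producing complete growth inhibition.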 Bounds are passed on as bounds.

Results on twelve molecules are retold here after PubChem BioAssay (NCI).

As for `CC(=O)O[C@H]1C(=O)[C@@]2(C)[C@H]([C@H](OC(=O)c3ccccc3)[C@]3(O)C[C@H](OC(=O)[C@H](O)[C@@H](NC(=O)c4ccccc4)C4CCCCC4)C(C)=C1C3(C)C)[C@]1(OC(C)=O)CO[C@@H]1C[C@@H]2O`, the TGI is 17.5 µM in the test on HT29 colon; above 62.7 µM in the test with CCRF-CEM leukemia; 15.3 µM in the test on NCI-H460 lung; below 0.01 µM in the test on OVCAR-3 ovarian; above 43 µM in the test with U251 CNS; above 100 µM with SNB-19 CNS. Moreover, the TGI in the test with KM12 colon was 37.1 µM; in the test on NCI-H23 lung it was above 100 µM; in the test on NCI-H522 lung, 0.011 µM; in the test on M14 melanoma it was 24 µM; with HCC-2998 colon, 16.4 µM; with IGROV1 ovarian, above 61.3 µM. In addition, the TGI in the test with HCT-15 colon is above 51.1 µM; with LOX IMVI melanoma it was above 56.4 µM; with COLO 205 colon, below 0.01 µM; with MOLT-4 leukemia it was above 51.6 µM; in the test with SK-MEL-28 melanoma, above 100 µM; in the test on T-47D breast, 93.7 µM.
Consider `CC1=Nc2nc3ccccc3n2C(C)(C)C1`, for which the TGI with HT29 colon, in the test on CCRF-CEM leukemia, in the test with NCI-H460 lung, in the test on OVCAR-3 ovarian, with U251 CNS and in the test with SNB-19 CNS was above 100 µM in each case. The TGI in the test on KM12 colon, in the test with NCI-H23 lung, with NCI-H522 lung, with M14 melanoma, in the test with IGROV1 ovarian and in the test with HCT-15 colon was above 100 µM in each case. Also, the TGI in the test with LOX IMVI melanoma, in the test with COLO 205 colon, with A498 renal, with MOLT-4 leukemia and with T-47D breast was above 100 µM each time.
`COC(=O)C1=C(C(=O)OC)SC(=C2c3ccsc3-c3sccc32)S1`: the TGI with HT29 colon is above 100 µM; with CCRF-CEM leukemia it was above 100 µM; in the test on NCI-H460 lung, above 100 µM; in the test with OVCAR-3 ovarian it was above 100 µM; with U251 CNS, 98.5 µM; with SNB-19 CNS, above 100 µM. In addition, the TGI is above 100 µM in the test with KM12 colon; 56.2 µM in the test on NCI-H23 lung; above 100 µM with M14 melanoma; above 100 µM in the test on HCC-2998 colon; above 100 µM in the test with IGROV1 ovarian; above 100 µM in the test with DU-145 prostate. In addition, the TGI in the test with HCT-15 colon was above 100 µM; in the test on LOX IMVI melanoma, above 100 µM; in the test on COLO 205 colon, above 100 µM; with A498 renal, 71.4 µM; in the test with MOLT-4 leukemia it was above 100 µM; with SK-MEL-28 melanoma, above 100 µM.
For `OC(c1ccsc1)c1cc2ccccc2s1` (centres undefined), the TGI with HT29 colon, with CCRF-CEM leukemia, in the test on NCI-H460 lung, with OVCAR-3 ovarian, with U251 CNS and in the test with SNB-19 CNS was above 10 µM each time. Moreover, the TGI in the test on KM12 colon, in the test on NCI-H23 lung, in the test with NCI-H522 lung, in the test with M14 melanoma, in the test with HCC-2998 colon and with IGROV1 ovarian was above 10 µM in each case. The TGI in the test with DU-145 prostate, in the test with HCT-15 colon, in the test on LOX IMVI melanoma, with COLO 205 colon, with MOLT-4 leukemia and in the test on SK-MEL-28 melanoma was above 10 µM throughout. In addition, the TGI with T-47D breast was above 10 µM.
Turning to `COC(=O)[C@@]12CC[C@]1(C(=O)OC)C1C(C)=CC(=O)O[C@@]12C` (some centres undefined), the TGI with HT29 colon, in the test on CCRF-CEM leukemia, in the test with NCI-H460 lung, in the test with OVCAR-3 ovarian, in the test with U251 CNS and in the test on SNB-19 CNS was above 100 µM in each case. In addition, the TGI in the test with KM12 colon, in the test on NCI-H23 lung, in the test on NCI-H522 lung, with M14 melanoma, in the test on HCC-2998 colon and with IGROV1 ovarian was above 100 µM throughout. Also, the TGI in the test with DU-145 prostate, in the test on HCT-15 colon, in the test with LOX IMVI melanoma, in the test on COLO 205 colon, in the test with MOLT-4 leukemia and in the test on SK-MEL-28 melanoma was above 100 µM each time. The molecule further returned a TGI in the test on T-47D breast above 100 µM.
As to `COC(=O)C(/C(=N/N)C(=O)Nc1ccc(C)c(C)c1)c1nc2ccc(Cl)cc2[nH]c1=O` (centres undefined), the TGI in the test on HT29 colon, in the test on CCRF-CEM leukemia, in the test with NCI-H460 lung, with OVCAR-3 ovarian, with U251 CNS and with KM12 colon was above 100 µM throughout. Moreover, the TGI in the test with NCI-H23 lung, in the test with NCI-H522 lung, in the test with M14 melanoma, with HCC-2998 colon, in the test with IGROV1 ovarian and in the test on HCT-15 colon was above 100 µM throughout. Moreover, the TGI with LOX IMVI melanoma, with A498 renal, with MOLT-4 leukemia, in the test on SK-MEL-28 melanoma and with T-47D breast was above 100 µM throughout.
For the molecule `O=c1c2c(sc3ccccc13)NCN(CCc1ccccc1)C2`, the TGI was 53.8 µM in the test on HT29 colon; above 100 µM in the test with CCRF-CEM leukemia; above 100 µM in the test on NCI-H460 lung; above 100 µM in the test on OVCAR-3 ovarian; above 100 µM in the test with U251 CNS; above 100 µM with SNB-19 CNS. In addition, the TGI in the test on KM12 colon is above 100 µM; with NCI-H23 lung, above 100 µM; in the test on NCI-H522 lung, above 100 µM; in the test with M14 melanoma, 84.4 µM; in the test with HCC-2998 colon, 56.9 µM; in the test on IGROV1 ovarian, above 100 µM. In addition, the TGI is above 100 µM in the test with DU-145 prostate; above 100 µM in the test on LOX IMVI melanoma; 37 µM with COLO 205 colon; above 100 µM with A498 renal; 80.2 µM in the test on MOLT-4 leukemia; above 100 µM with SK-MEL-28 melanoma.
Consider `C/C(=N\Nc1nc2ccccc2[nH]1)c1ccncn1`, for which the TGI is above 100 µM in the test on HT29 colon; above 36.6 µM in the test with CCRF-CEM leukemia; above 100 µM in the test with NCI-H460 lung; 13 µM in the test with OVCAR-3 ovarian; above 100 µM in the test on U251 CNS; above 100 µM with SNB-19 CNS. Besides, the TGI was 35.9 µM in the test with KM12 colon; above 33.3 µM with NCI-H23 lung; above 79.5 µM in the test on HCC-2998 colon; 43.8 µM with IGROV1 ovarian; above 100 µM with HCT-15 colon; above 42.5 µM in the test with LOX IMVI melanoma. Also, the TGI was above 47.4 µM with COLO 205 colon; 6.38 µM in the test with A498 renal; above 100 µM with MOLT-4 leukemia; above 63 µM in the test with SK-MEL-28 melanoma; above 100 µM with T-47D breast.
For `Cn1c(N(CCO)CCO)cnc1[N+](=O)[O-]`, the TGI with HT29 colon, in the test with CCRF-CEM leukemia, with NCI-H460 lung, in the test on OVCAR-3 ovarian, with U251 CNS and in the test on SNB-19 CNS was above 100 µM in each case. Besides, the TGI in the test on KM12 colon, with NCI-H23 lung, in the test on NCI-H522 lung, in the test with M14 melanoma, with IGROV1 ovarian and in the test on HCT-15 colon was above 100 µM throughout. Also, the TGI with LOX IMVI melanoma, with COLO 205 colon, in the test with A498 renal, with MOLT-4 leukemia and in the test on T-47D breast was above 100 µM in each case.
For `O=C1C=C(c2c(-c3ccccc3)[nH]c3ccccc23)C(=O)N1c1ccccc1`, the TGI in the test with HT29 colon came to 29.7 µM; in the test on CCRF-CEM leukemia it was 49.4 µM; with NCI-H460 lung, 35.3 µM; with OVCAR-3 ovarian it was 15.8 µM; in the test on U251 CNS it was 26.8 µM; in the test on SNB-19 CNS, 66.1 µM. The TGI in the test with NCI-H23 lung stood at 38.6 µM; in the test on M14 melanoma, 30.4 µM; in the test with HCC-2998 colon, 20.8 µM; in the test on IGROV1 ovarian it was 51.4 µM; with DU-145 prostate, 15.7 µM; with HCT-15 colon, 23.8 µM. Further, the TGI in the test with LOX IMVI melanoma was 24 µM; in the test on COLO 205 colon it was 24.5 µM; in the test on A498 renal it was 23.1 µM; with MOLT-4 leukemia it was above 100 µM; with SK-MEL-28 melanoma it was 68.7 µM.
Take `COc1ccc(-c2nc(N(C)C)c3ccccc3n2)cc1`: the TGI is 22.7 µM with HT29 colon; 26.9 µM in the test on NCI-H460 lung; 80 µM with U251 CNS; above 100 µM in the test with SNB-19 CNS; 68.8 µM in the test on KM12 colon; 69 µM with NCI-H23 lung. Also, the TGI was 27.8 µM in the test with NCI-H522 lung; 44.2 µM in the test on M14 melanoma; 23.5 µM in the test on HCC-2998 colon; above 100 µM in the test with IGROV1 ovarian; 37.8 µM in the test with HCT-15 colon; 28.8 µM with LOX IMVI melanoma. Moreover, the TGI in the test with COLO 205 colon was 29.6 µM; in the test on MOLT-4 leukemia, 15.8 µM; in the test with SK-MEL-28 melanoma, 33.7 µM; in the test with T-47D breast, 49.1 µM.
`Nc1ncnc2c1ncn2[C@@H]1C[C@H]1CO`: the TGI in the test with HT29 colon, in the test with CCRF-CEM leukemia, in the test on NCI-H460 lung, in the test with OVCAR-3 ovarian, in the test on U251 CNS and with SNB-19 CNS was above 100 µM throughout. Besides, the TGI in the test on KM12 colon, with NCI-H23 lung, in the test with NCI-H522 lung, in the test with M14 melanoma, in the test with HCC-2998 colon and in the test with HCT-15 colon was above 100 µM in each case. The TGI with LOX IMVI melanoma, in the test on A498 renal, in the test with MOLT-4 leukemia and in the test on T-47D breast was above 100 µM throughout.
